These results are taken from US6653300B2, “Pyrazole compounds useful as protein kinase inhibitors” (Vertex Pharmaceuticals Incorporated, priority 2000, dated 2003).

The target in one data set is T1, GSK-3β (AA 1-420) (Homo sapiens, UniProt P49841).
T1 construct: GSK-3β (AA 1-420)
Description: Ki determination for the inhibition of GSK-3 (coupled enzyme system). It is filed as biochemical. The following applies: 20 μM ATP, 20 nM GSK-3β, 30° C. In a few lines:
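GSK-3β (AA 1-420, 20 nM) was run in a pyruvate kinase/LDH-coupled NADH assay in 100 mM HEPES pH 7.5, 10 mM MgCl2, 25 mM NaCl, 1 mM DTT, 1.5% DMSO, with 300 μM phosphopeptide substrate. Compound (0.002–30 μM) was preincubated 10 min at 30° C, then 20 μM ATP was added.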

In another data set the target is T2, Aurora-2 (Homo sapiens, UniProt O14965).
T2 sequence (O14965 1-403): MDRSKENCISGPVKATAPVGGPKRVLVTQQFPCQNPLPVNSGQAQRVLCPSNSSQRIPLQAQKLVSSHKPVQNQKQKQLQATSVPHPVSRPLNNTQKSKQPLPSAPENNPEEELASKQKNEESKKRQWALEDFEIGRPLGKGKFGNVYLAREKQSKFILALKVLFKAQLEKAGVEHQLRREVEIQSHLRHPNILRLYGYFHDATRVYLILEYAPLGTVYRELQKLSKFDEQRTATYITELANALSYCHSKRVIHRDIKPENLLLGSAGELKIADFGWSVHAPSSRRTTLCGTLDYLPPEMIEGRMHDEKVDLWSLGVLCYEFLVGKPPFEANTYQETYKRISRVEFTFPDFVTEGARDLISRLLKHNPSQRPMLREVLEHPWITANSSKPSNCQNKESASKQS
Description: Ki determination for the inhibition of Aurora-2 (coupled enzyme assay). The data set is classed as biochemical. The following applies: 70 nM Aurora-2, 30° C. Put shortly:
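Ki came from reaction rates plotted against inhibitor concentration, with rates taken as A340 decrease over 5 min at 30° C. Enzyme (70 nM final) was added after 10 min compound preincubation; stock buffer held […], 800 μM LRRASLG, PK/LDH coupling, pH 7.5.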

A further data set addresses CDK-2/Cyclin A (Homo sapiens, UniProt P24941). As to the kind of experiment: CDK-2 inhibition assay (coupled enzyme assay). It is filed as biochemical. The following applies: 25 nM CDK-2/Cyclin A, 30° C. As for the experimental part:
Compounds were screened in the following manner for their ability to inhibit CDK-2 using a standard coupled enzyme assay (Fox et al (1998) Protein Sci 7, 2249).
To an assay stock buffer solution containing 0.1M HEPES 7.5, 10 mM MgCl2, 1 mM DTT, 25 mM NaCl, 2.5 mM phosphoenolpyruvate, […], 30 mg/ml pyruvate kinase, 10 mg/ml lactate dehydrogenase, 100 mM ATP, and 100 μM peptide ([…], American Peptide, Sunnyvale, Calif.) was added a DMSO solution of a compound of the present invention to a final concentration of 30 μM. The resulting mixture was incubated at 30° C. for 10 min.
The reaction was initiated by the addition of 10 μL of CDK-2/Cyclin A stock solution to give a final concentration of 25 nM in the assay. The rates of reaction were obtained by monitoring absorbance at 340 nm over a 5-minute read time at 30° C. using a BioRad Ultramark plate reader (Hercules, Calif.). The Ki values were determined from the rate data as a function of inhibitor concentration.

In the next data set the target is activated ERK2 (Homo sapiens, UniProt P28482). Description: ERK inhibition assay (spectrophotometric coupled-enzyme assay). Particulars: 10 nM activated ERK2, 65 μM ATP, 30° C.; read-out: Ki values for ERK-2. It is filed as biochemical. As for the experimental part: Compounds were assayed for the inhibition of ERK2 by a spectrophotometric coupled-enzyme assay (Fox et al (1998) Protein Sci 7, 2249).

Structures are written as SMILES.

T1 sequence (P49841 whole entry, the tested form may be a part): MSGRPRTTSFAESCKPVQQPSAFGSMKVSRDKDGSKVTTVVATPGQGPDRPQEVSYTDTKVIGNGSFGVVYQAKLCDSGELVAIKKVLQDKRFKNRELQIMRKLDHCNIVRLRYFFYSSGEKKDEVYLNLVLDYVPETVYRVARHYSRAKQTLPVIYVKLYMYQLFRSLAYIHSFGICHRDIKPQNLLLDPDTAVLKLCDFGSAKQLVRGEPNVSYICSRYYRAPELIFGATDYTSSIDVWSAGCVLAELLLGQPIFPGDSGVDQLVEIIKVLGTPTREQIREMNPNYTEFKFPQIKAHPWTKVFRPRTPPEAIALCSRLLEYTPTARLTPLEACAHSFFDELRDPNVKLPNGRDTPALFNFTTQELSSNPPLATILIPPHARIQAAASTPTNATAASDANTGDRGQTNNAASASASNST
Sequence of activated ERK2 (P28482 whole entry): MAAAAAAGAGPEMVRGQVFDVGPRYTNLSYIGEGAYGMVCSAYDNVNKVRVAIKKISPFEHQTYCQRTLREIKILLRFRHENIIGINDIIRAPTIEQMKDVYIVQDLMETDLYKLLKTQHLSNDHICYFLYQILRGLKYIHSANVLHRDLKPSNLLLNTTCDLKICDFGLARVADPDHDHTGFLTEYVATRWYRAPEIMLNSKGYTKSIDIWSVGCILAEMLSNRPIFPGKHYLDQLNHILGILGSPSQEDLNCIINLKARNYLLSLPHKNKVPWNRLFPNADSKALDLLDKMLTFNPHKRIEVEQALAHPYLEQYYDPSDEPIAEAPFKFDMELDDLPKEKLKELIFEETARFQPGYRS

Usually Ki stands for the dissociation constant of the complex between target and ligand, obtained from inhibition or displacement. For orientation: melting point means the temperature of the solid-liquid transition. For the molecule `c1ccc2c(Nc3cc(C4CC4)[nH]n3)nc(Nc3ccc4ncsc4c3)nc2c1` [IIc-32, [2-(Benzothiazol-6-ylamino)-quinazolin-4-yl]-(5-cyclopropyl-2H-pyrazol-3-yl)-amine], the melting point lay in the range of 255 to 256 °C. The molecule further displayed a Ki on GSK-3β (AA 1-420) below 100 nM. At Aurora-2, this molecule came in with a Ki below 100 nM. The Ki at CDK-2/Cyclin A was below 1000 nM. Also, the Ki on activated ERK2 is below 1000 nM.
